In EP1147080B1 (Wyeth Holdings Corporation, priority 1999, dated 2000):
Where two headings read alike, the source gives them in different places.

Tests used:
MMP-1 = target: T1, MMP-1 (Homo sapiens, UniProt P03956); assay: MMP-1 inhibition (thiopeptide or fluorescent peptide substrate); details: for inhibition at 10 µM: read-out: MMP1
T1 sequence (P03956 100-469): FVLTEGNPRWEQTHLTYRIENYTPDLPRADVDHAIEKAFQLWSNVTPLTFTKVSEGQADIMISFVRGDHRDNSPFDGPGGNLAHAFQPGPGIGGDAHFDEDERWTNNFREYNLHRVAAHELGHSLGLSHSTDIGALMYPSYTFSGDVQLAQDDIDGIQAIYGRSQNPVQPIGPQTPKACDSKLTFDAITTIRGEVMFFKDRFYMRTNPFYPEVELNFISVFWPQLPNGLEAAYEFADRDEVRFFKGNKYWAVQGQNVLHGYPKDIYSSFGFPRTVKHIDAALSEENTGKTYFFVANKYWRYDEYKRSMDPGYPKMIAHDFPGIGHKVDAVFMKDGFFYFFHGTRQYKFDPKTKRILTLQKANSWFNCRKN

MMP-13 = MMP-13 (Homo sapiens, UniProt P45452); assay: MMP-13 inhibition (thiopeptide or fluorescent peptide substrate); format: biochemical; details: read-out: MMP13; for inhibition at 1 µM: % at 1 um (specified in cell); for inhibition at 10 µM: % @ 10µM per footnote a
Description: Alternatively, a fluorescent peptide substrate is used.

THP-1 cells = assay: Human monocytic THP-1 cell differentiation assay for soluble proteins (THP soluble protein assay), LPS-stimulated, TNF-α ELISA; format: cell-based; details: for inhibition at 3 µM: Homo sapiens, THP-1; at 3 uM; percent change from vehicle positive control; read-out: TNFalpha at 3 uM) THP (percent change); for THP (% inhibition): Table 1, concentration not given
Description: Mitogenic stimulation of THP-1 cells cause differentiation into macrophage like cells with concomitant secretion of tumor necrosis factor (TNF-a) and TNF receptor (TNF-R p75/80 and TNF-R p55/60) and Interleukin-8 (IL-8), among other proteins. In addition, non-stimulated THP-1 cells shed both the p75/80 and the p55/60 receptors over time. The release of membrane bound TNF-a and possibly TNF-R p75/80 and TNF-R p55/60, but not IL-8, is mediated by an enzyme called TNF-α converting enzyme or TACE.
THP-1 cells (from ATCC) are a human monocytic cell line which were obtained from the peripheral blood of a person with acute monocytic leukemia. They can be grown in culture and differentiated into macrophage like cells by stimulation with mitogens.
Each vial of cells are cultured for about two weeks prior to being used for an assay and then are used for only 4 to 6 weeks to screen compounds.
Cell exposure to DMSO was limited to 0.1 % final concentration. […] Compounds can be evaluated for their effect on basal (non-stimulated) shedding of the receptors by replacing the LPS with […] of THP-1 media. Plates are placed into an incubator set at 5% CO2 and at 37°C. After 4 hours of incubation, […] of tissue culture supernatant (TCS) is removed for use in an TNF-α ELISA. Following 24 hours of incubation, […] of TCS is removed and used for analysis in TNF-R p75/80, TNF-R p55/60 and IL-8 ELISAs.
In addition, at the 24 hours timepoint, and the cells for each treatment group are collected by resuspension in 500 µl/well of THP-1 media and transferred into a FACS tube. […] The samples are run on a Becton Dickinson FaxCaliber FLOW cytometry machine and the amount of dye taken up by each cell is measured in the high red wavelength (FL3). Only cells with compromised membranes (dead or dying) can take up PI. The percent of live cells is calculated by the number of cells not stained with PI, divided by the total number of cells in the sample. The viability values calculated for the drug treated groups were compared to the viability value calculated for the vehicle treated mitogen stimulated group ("vehicle positive control") to determine the "percent change from control". This "percent change from control" value is an indicator of drug toxicity.
The quantity of soluble TNF-α, TNF-R p75/80 and TNF-R p55/60 and IL-8 in the TCS of the THP-1 cell cultures are obtained with commercially available ELISAs from R&D Systems, by extrapolation from a standard curve generated with kit standards. The number of cells that either take up or exclude PI are measured by the FLOW cytometry machine and visualized by histograms using commercially available Cytologic software for each treatment group including all controls.
Biological variability in the magnitude of the response of THP-1 cell cultures requires that experiments be compared on the basis of percent change from "vehicle positive control" for each drug concentration. Percent change in each soluble protein evaluated from the "vehicle positive control" was calculated for each compound concentration with the following formula: % Change =(pg/ml (compound) - pg/ml (veh pos control))/(pg/ml (veh pos control) - pg/ml (veh neg control))x 100 [formula]
For the soluble protein (TNF-a, p75/80, p55/60, IL-8) studies under stimulated conditions, the mean pg/ml of duplicate wells were determined and the results expressed as percent change from "vehicle positive control". For the soluble protein (p75/80 and p55/60 receptors) studies under non-stimulated conditions, the mean pg/ml of duplicate wells were determined and the results expressed as percent change from […] utilizing the following formula: % Change =(pg/ml (compound neg control) - pg/ml (veh neg control))/(pg/ml (veh neg control))X 100 [formula]
IC50 values for each compound are calculated by non-linear regression analysis using customized software utilizing the JUMP statistical package.

[1] = target: TNF-α converting enzyme (TACE) (Homo sapiens, UniProt P78536); assay: Test procedure for measuring TACE inhibition (fluorescent peptidyl substrate); format: biochemical
Sequence of TNF-α converting enzyme (TACE) (P78536 215-824): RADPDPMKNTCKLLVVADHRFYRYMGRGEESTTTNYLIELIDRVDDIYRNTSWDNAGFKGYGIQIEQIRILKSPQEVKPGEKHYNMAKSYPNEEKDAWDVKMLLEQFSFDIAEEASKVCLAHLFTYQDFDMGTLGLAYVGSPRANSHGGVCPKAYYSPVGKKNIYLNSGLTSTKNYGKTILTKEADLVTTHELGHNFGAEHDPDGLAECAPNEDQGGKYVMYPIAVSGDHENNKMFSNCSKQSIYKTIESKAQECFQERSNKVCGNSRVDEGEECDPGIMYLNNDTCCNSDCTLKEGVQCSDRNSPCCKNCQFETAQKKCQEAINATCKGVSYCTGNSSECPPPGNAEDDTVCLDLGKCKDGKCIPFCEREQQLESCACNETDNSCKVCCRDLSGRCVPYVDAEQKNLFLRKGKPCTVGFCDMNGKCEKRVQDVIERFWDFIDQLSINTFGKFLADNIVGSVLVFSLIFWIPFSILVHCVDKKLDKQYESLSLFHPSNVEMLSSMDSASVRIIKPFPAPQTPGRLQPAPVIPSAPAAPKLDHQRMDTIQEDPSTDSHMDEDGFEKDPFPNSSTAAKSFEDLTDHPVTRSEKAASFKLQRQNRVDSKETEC

[2] = second table, IC50 (nM) per footnote a

Compound | inhibition at 10 µM (MMP-1) | inhibition at 3 µM (THP-1 cells) | IC50 [1, 2] | inhibition at 10 µM (MMP-13) | IC50 ([1]; Table 1) | other results
CC#CCOc1ccc([S+]([O-])[C@@H](C(=O)NO)c2ccc(-c3cccs3)cc2)cc1 (stereo partly drawn) [Example 90, (2R)-2-{[4-(2-butynyloxy)phenyl]sulfinyl}-N-hydroxy-2-[4-(2-thienyl)phenyl] ethanamide] | 7% | 1% | – | – | – | inhibition at 1 µM (MMP-13): 16%
CC#CCOc1ccc(S(=O)(=O)C(C(=O)NO)c2cccc(Br)c2)cc1 (stereo not shown) [Example 106, 2-{[4-(2-Butynyloxy)phenyl]sulfonyl}-2-(3-bromophenyl)-N-hydroxyacetamide] | 0% | -5% | 65 nM | 56% | – | –
CC#CCOc1ccc([S+]([O-])[C@H](C(=O)NO)c2cccc(Br)c2)cc1 (single isomer, unassigned) [Example 105] | 9% | -4% | 106 nM | 32% | – | –
CC#CCOc1ccc(S(=O)(=O)C(C(=O)NO)c2ccc(Br)cc2)cc1 (stereo not shown) [Example 88, 2-(4-bromophenyl)-2-{[4-(2-butynyloxy)phenyl]sulfonyl}-N-hydroxyacetamide] | 20% | 4% | 226 nM | – | – | inhibition at 1 µM (MMP-13): 21%
CC#CCOc1ccc(SC(C(=O)NO)c2cccc3ccccc23)cc1 (stereo not shown) [Example 92, 2-{[4-(2-Butynyloxy)phenyl]sulfanyl}-N-hydroxy-2-(1-naphthyl)acetamide] | 8% | -7% | 931 nM | 25% | – | –
CC#CCOc1ccc(SC(C(=O)NO)c2ccc3ccccc3c2)cc1 (stereo not shown) [Example 114, 2-{[4-(2-Butynyloxy)phenyl]sulfanyl}-2-(2-naphthyl)-N-hydroxyacetamide] | 3.5% | 12% | – | 30.5% | – | inhibition at 10 µM ([1]; % @ 10µM per footnote a, read-out: TACE IC50): 40.9%
CC#CCOc1ccc([S+]([O-])[C@@H](C(=O)NO)c2ccc(Br)cc2)cc1 (single isomer, unassigned) [Example 87] | 17% | – | 336 nM | – | – | inhibition at 1 µM (MMP-13): 33%
CC#CCOc1ccc(SC(C(=O)NO)c2cccc(Cl)c2)cc1 (stereo not shown) [Example 83, 2-{[4-(2-butynyloxy)phenyl]sulfanyl}-2-(3-chlorophenyl)-N-hydroxyacetamide] | 9.4% | 0% | 133 nM | 36.4% | – | –
CC#CCOc1ccc([S+]([O-])C(CCCCNC(=O)c2ccc3ccccc3n2)C(=O)NO)cc1 (mixture of isomers) [Example 23, Quinoline-2-carboxylic acid [5-(4-but-2-ynyloxy-benzenesulfinyl)-5-hydroxycarbamoyl-pentyl]-amide] | – | – | – | – | 20.5 nM | IC50 (MMP-1): 3300 nM
CC#CCOc1ccc(SC(C(=O)NO)C2CCCCC2)cc1 (stereo not shown) [Example 73, 2-{[4-(2-butynyloxy)phenyl]sulfanyl}-2-cyclohexyl-N-hydroxyacetamide] | 4.8% | 0% | – | – | – | –
CC#CCOc1ccc([S+]([O-])C(C(=O)NO)c2ccc(Cl)cc2)cc1 (mixture of isomers) [Example 81, 2-{[4-(2-butynyloxy)phenyl]sulfinyl}-2-(4-chlorophenyl) N-hydroxyacetamide] | 30.5% | 6% | 223 nM | – | – | inhibition at 1 µM (MMP-13): 21.6%
CC#CCOc1ccc(SC(C(=O)NO)c2ccc(OCC)cc2)cc1 (stereo not shown) [Example 100, 2-{[4-(2-butynyloxy)phenyl]sulfanyl}-N-hydroxy-2-(4-ethoxyphenyl) acetamide] | 2% | – | 100 nM | 15% | – | –
CC#CCOc1ccc(S(=O)(=O)C(CCCCCC)C(=O)NO)cc1 (stereo not shown) [Example 5, 2-(4-But-2-ynyloxy-benzenesulfonyl)-octanoic acid hydroxamide] | – | – | – | – | – | IC50 (MMP-1; read-out: MMP1 IC50, Table 1): 10000 nM; THP (% inhibition) (THP-1 cells): 6%
CC#CCOc1ccc(S(=O)(=O)C(C(=O)NO)c2cccc(Cl)c2)cc1 (stereo not shown) [Example 84, 2-{[4-(2-butynyloxy)phenyl]sulfonyl}-2-(3-chlorophenyl)-N-hydroxyacetamide] | 10% | -7% | – | – | – | inhibition at 1 µM (MMP-13): 23%
CC#CCOc1ccc([S+]([O-])C(C(=O)NO)c2ccc(OCC)cc2)cc1 (stereo not shown) [Example 101, 2-{[4-(2-Butynyloxy)phenyl]sulfinyl}-N-hydroxy-2-(4-ethoxyphenyl) acetamide] | 8% | – | 76 nM | 51% | – | –
CC#CCOc1ccc([S+]([O-])C(CCCCNC(=O)CNC(=O)c2ccccc2CCc2ccccc2)C(=O)NO)cc1 (stereo not shown) [Example 56] | – | – | – | – | 21.9 nM | IC50 (MMP-1): 3900 nM
CC#CCOc1ccc([S+]([O-])C(CCCCNC(=O)CNC(=O)Cc2ccc(Cl)c(Cl)c2)C(=O)NO)cc1 (stereo not shown) [Example 57] | – | – | – | – | 24.4 nM | IC50 (MMP-1): 4600 nM
CC#CCOc1ccc(OCCC(=O)NO)cc1 [Example 9, 3-(4-But-2-ynyloxy-phenoxy)-N-hydroxy-propionamide] | – | – | – | – | 30 nM | IC50 (MMP-1): 10000 nM; THP (% inhibition) (THP-1 cells): 16%
CC#CCOc1ccc([S+]([O-])C(CCCCNC(=O)CNC(=O)C2c3ccccc3Oc3ccccc32)C(=O)NO)cc1 (stereo not shown) [Example 59] | – | – | – | – | 22.6 nM | IC50 (MMP-1): 3400 nM
CC#CCOc1ccc(S(=O)(=O)C(C(=O)NO)C2CCOCC2)cc1 (stereo not shown) [Example 122, 2-{[4-(2-Butynyloxy)phenyl]sulfonyl}-N-hydroxy-2-tetrahydro-2H-pyran-4-yl-acetamide] | 9% | 36% | – | 57% | – | –
CC#CCOc1ccc([S+]([O-])C(CCCCNC(=O)CNC(=O)c2cnc3ccccc3c2)C(=O)NO)cc1 (stereo not shown) [Example 53] | – | – | – | – | 15.2 nM | IC50 (MMP-1): 4000 nM
CC#CCOc1ccc(SC(C)C(=O)NO)cc1 (stereo not shown) [Example 4, 2-(4-But-2-ynyloxy-phenylsulfanyl)-N-hydroxy-propionamide] | – | – | – | – | 47.2 nM | THP (% inhibition) (THP-1 cells): 2%
CC#CCOc1ccc([S+]([O-])C(CCCCNC(=O)CNC(=O)CCCc2cccs2)C(=O)NO)cc1 (stereo not shown) [Example 58] | – | – | – | – | 20.1 nM | IC50 (MMP-1): 4600 nM
CC#CCOc1ccc(SC(C(=O)NO)c2cccc(Br)c2)cc1 (stereo not shown) [Example 103, 2-{[4-(2-Butynyloxy)phenyl]sulfanyl}-N-hydroxy-2-(3-bromophenyl) acetamide] | 4% | – | 113 nM | 12% | – | –
